This is an account of results in patent US12564188B2, “Hydrogel beads for controlled uptake and release of cryoprotective agents” (The General Hospital Corporation, priority 2020, dated 2026).

Molecules are shown by their SMILES. Read-outs that look alike come from different tables or passages of the source.

Data set [1] is described as follows: DMSO release from hydrogel beads into saline, osmolality by micro-osmometer. Particulars: room temperature, 5.0 μL beads incubated in 15% DMSO. The format is physicochemical. The protocol: Here, beads 1-5 mm in diameter were synthesized using microfluidic droplet generation and 2% polyacrylamide/bis-acrylamide, following standard oil emulsion methods^43, and beads were synthesized using calcium alginate. Uniform calcium-alginate hydrogel beads were synthesized by dripping 5% alginate from a needle with a surrounding nitrogen gas sheath into a CaCl2 bath. Bead size and uniformity was confirmed by imaging. 5.0 μL beads were incubated for four hours in a 15% DMSO solution, then strained, blotted, and weighed. Beads were then suspended in saline for several minutes under gentle mixing, and the rate of DMSO release was measured over time by sampling the solution and measuring osmolality by micro-osmometer. The rate of release was compared with numerical simulations of diffusion based on the average bead size (FIG. 3). The diffusion coefficient of DMSO within the gel was measured to be 1.0×10^−5 cm^2s^−1 at room temperature, matching expected values^41,42.
Expected outcomes and alternative approaches: The key metric of success is the ability to reliably add and then remove CPA from a given sample solution at tunable rates which are predicted by modeling. Bead geometry alone is sufficient to achieve gradual CPA uptake and release. The sample recovery was about 96% without any dilution in these experiments.

A further data set deals with patients. The note with it: cited from earlier work.
[2] abbreviates: DMSO implicated, co-injection with CAR T cells.

As for `C[S+](C)[O-]` [DMSO, dimethyl sulfoxide], in data set [1], the “diffusion coefficient of DMSO within the gel” value is 1.0×10^−5 cm^2s^−1. Also, in the data set on patients (setting [2]), the aphasia was 18%, the delirium is reported as 29%, the encephalopathy was 34% and the tremors was 29%. Besides, the “patients experiencing nausea and vomiting” value with patients (co-injection of 10-20 mL DMSO along with CAR T cells) is recorded as 40-60%. For the same compound, in the data set with patients (co-injection of approximately 10 mL DMSO along with thawed CAR T cell product), the “patients experiencing nausea and vomiting” value is listed as “up to 60%”.
